Source: patent publication US6653346B1, “Cytoprotective benzofuran derivatives” (Galileo Pharmaceuticals, Inc., priority 2002, dated 2003)

Each compound was assayed on CRP in Hep3B cells (assay: Human Hep3B cells - CRP assay (CRP ELISA)). Conditions: 72 h, Hep3B cells stimulated with IL-1β, IL-6 and dexamethasone, three days, read-out: EC50 for reducing CRP levels.
Type: cell-based
Excerpt: Hep3B Cell Line is obtained from the American Type Culture Collection (ATCC Catalog No. HB-8064). The Hep3B cell line was derived from liver tissue of […]. The cells are epithelial in morphology and produce tumors in nude mice. The cells produce α-fetoprotein, hepatitis B surface antigen, albumin, α-2-macroglobulin, α-1-antitrypsin, transferrin, plasminogen, complement C3 and β-lipoprotein (Knowles BB, et al., Science, 1980, 209:497-499). This cell line has been widely used to study hepatocyte cytokine and acute phase protein release (e.g., Damtew B, et al.,1993, J Immunol 150:4001-4007).
HEP3B cells are grown in Minimum Essential Medium (MEM; GIBCO) supplemented with 10% Fetal Bovine Serum (FBS; Hyclone), 1×Penicillin/Streptomycin (GIBCO, Cat #15140-122) and 0.1 mM non-essential amino acids (GIBCO, Catalog No. 11140-050). Cells are thawed and transferred to warm medium according to standard methods known in the art.
Cells are incubated in flasks at 37° C. with 5% CO2 in an air atmosphere incubator. HEP3B growth media is changed every 2 days until the cells reach 70-80% confluence (approx. 3-4 days). For assay, the cells are transferred to 96-well plates, seeded at 5000 cells per well in culture media, and left to grow for 7 days in a 37° C. incubator (air supplemented with 5% CO2). Media is replaced daily until assay. Test compounds are diluted into “Stimulus Buffer” (MEM medium containing 0.1 mM non-essential amino acids, 1×penicillin/streptomycin, 10% FBS with 10 ng/ml IL-1β, 20 ng/ml IL-6 and 1 μM dexamethasone. Media is removed from the cells and is replaced with 200 μl of test dilution. Cells are returned to the incubator for three days at 37° C. CRP ELISA is then performed on supernatant from the cells, as described below.
Costar EIA/RIA plates are coated with rabbit anti-human CRP (DAKO) diluted 1:4000 in carbonate buffer (100 μl/well) for 45 minutes at 37° C. Plates are then washed 5×with CRP washing buffer (50 mM Tris-HCl, 0.3M NaCl, […], pH 8.0) using an automatic plate washer. Plates may be dried, covered and refrigerated until use. Supernatant (100 μl) is removed from each well of the test plates and added to the corresponding well of a precoated ELISA plate.
100 μl HRP-conjugated rabbit anti-human CRP (DAKO) diluted 1:500 (in CRP wash buffer) is added to each well, followed by incubation for 30 minutes at 37° C. Plates are washed 5× with CRP washing buffer using the automatic plate washer. 200 μl of 3,3′,5,5′-Tetramethyl Benzidine (TMB) liquid Substrate System (Sigma, St. Louis, Mo.) is added to each well, followed by incubation in the dark for 15 minutes at room temperature. Finally, 50 μl of 1 M H2SO4 is added to each well and absorbance at 450 nm is immediately measured in a microtiter spectrophotometer.
CRP measured as above is normalized to cell count per well, using a cell viability assay, such as the Cell Tracker Green assay. To do this, the remainder of the medium is from the cell test plates, cells are washed with 200 μl of pre-warmed 1×Hanks Basic Salt Solution (HBSS; GIBCO), and 100 μL of 5 μM Cell Tracker Green (Molecular Probes, Eugene, Oreg.) is added to each well. Plates are then incubated at 37° C. for 30 minutes. Cells are then washed twice with prewarmed 1×HBSS. Plates are immediately read using a Fluoroskan® flourometer with a 485 excitation/538 emission filter pair.

| SMILES | EC50 |
| --- | --- |
| CC(=O)c1oc2c(C)c(C)c(O)cc2c1Br [1-(3-Bromo-5-hydroxy-6,7-dimethyl-benzofuran-2-yl)-ethanone] | 10 to 40 µM |
| Cc1c(O)cc2cc(C(=O)CN3CCOCC3)oc2c1C [1-(5-Hydroxy-6,7-dimethyl-benzofuran-2-yl)-2-morpholin-4-yl-ethanone] | 10 to 40 µM |
| CC(=O)c1cc2cc(O)c(C)c(C)c2o1 [1-(5-Hydroxy-6,7-dimethyl-benzofuran-2-yl)ethanone] | 10 to 40 µM |
| Cc1c(O)cc2cc(C3(O)CN(C)CCO3)oc2c1C (stereo not shown) [2-(5-Hydroxy-6,7-dimethyl-benzofuran-2-yl)-4-methyl-morpholin-2-ol] | 10 to 40 µM |
| COc1ccc(-c2coc3c(C)c(C)c(O)cc23)cc1 [3-(4-Methoxy-phenyl)-6,7-dimethyl-benzofuran-5-ol] | 10 to 40 µM |
| Cc1c(C)c2occ(-c3ccccc3)c2c2c(-c3ccccc3)coc12 [4,5-Dimethyl-1,8-diphenyl-benzo[1,2-b;4,3-b′]difuran] | 10 to 40 µM |
| Cc1c(O)cc2c(-c3ccccc3)coc2c1C [6,7-Dimethyl-3-phenyl-benzofuran-5-ol] | 10 to 40 µM |
